Source: article PMC11876601 (Molecular Systems Biology, 2025)
Where two headings read alike, the source gives them in different places.

Key:
Assay in all cases: cells
[1] = tested on: AsPC-1; design: Viability of PDAC cell lines, ATPlite luminescence, 11-dose single-agent curve fit; details: Homo sapiens, ASPC1, 72 h, read-out: EC50 [nM]
Method: (§1) Afterward, small amounts were transferred to 384-well intermediate plates (Greiner Bio-One GmbH, Germany). […] For drug combination screening, 1000 to 5000 cells were seeded into 384-well plates (CulturPlate™, Perkin Elmer, MA, USA) using a Multidrop™ Combi Reagent Dispenser (Thermo Scientific, MA, USA) in 50 µl medium per well 24 h prior to drug treatment (seeding densities see Appendix Table S1). […] The final DMSO concentration in each well was 0.2%. […] Eight wells per plate without library drug served as negative controls, and sixteen wells per plate containing 5 µM Staurosporine served as positive controls. […] Next, we analyzed the drug sensitivity of immortalized duct cell line HPDE to detect effects unrelated to pancreatic cancer.

[2] = tested on: BxPC-3; design: Viability of PDAC cell lines, ATPlite luminescence, 11-dose single-agent curve fit; details: Homo sapiens, BXPC-3, 72 h, read-out: EC50 [nM]
Method: as §1

[3] = tested on: Capan-1; design: Viability of PDAC cell lines, ATPlite luminescence, 11-dose single-agent curve fit; details: Homo sapiens, CAPAN-1, 72 h, read-out: EC50 [nM]
Method: as §1

[4] = tested on: Colo-357; design: Viability of PDAC cell lines, ATPlite luminescence, 11-dose single-agent curve fit; details: Homo sapiens, COLO357, 72 h, read-out: EC50 [nM]
Method: as §1

[5] = tested on: Dan-G; design: Viability of PDAC cell lines, ATPlite luminescence, 11-dose single-agent curve fit; details: 72 h, read-out: EC50 [nM]
Method: as §1

[6] = tested on: HPDE; design: Viability of PDAC cell lines, ATPlite luminescence, 11-dose single-agent curve fit; details: HPDE, 72 h, read-out: EC50 [nM]
Method: as §1

[7] = tested on: MiaPaCa-2; design: Viability of PDAC cell lines, ATPlite luminescence, 11-dose single-agent curve fit; details: Homo sapiens, MIA PaCa-2, 72 h, read-out: EC50 [nM]
Method: as §1

[8] = tested on: PANC-1; design: Viability of PDAC cell lines, ATPlite luminescence, 11-dose single-agent curve fit; details: Homo sapiens, PANC-1, 72 h, read-out: EC50 [nM]
Method: as §1

[9] = tested on: PSN-1; design: Viability of PDAC cell lines, ATPlite luminescence, 11-dose single-agent curve fit; details: Homo sapiens, PSN1, 72 h, read-out: EC50 [nM]
Method: as §1

[10] = tested on: PaTu-8988-T; design: Viability of PDAC cell lines, ATPlite luminescence, 11-dose single-agent curve fit; details: Homo sapiens, PaTu 8988t, 72 h, read-out: EC50 [nM]
Method: as §1

[11] = tested on: Suit2-07; design: Viability of PDAC cell lines, ATPlite luminescence, 11-dose single-agent curve fit; details: 72 h, read-out: EC50 [nM]
Method: as §1

[12] = tested on: FAMPAC; design: Viability of PDAC cell lines, ATPlite luminescence, 11-dose single-agent curve fit; details: 72 h, read-out: EC50 [nM]
Method: as §1

[13] = tested on: HuP-T4; design: Viability of PDAC cell lines, ATPlite luminescence, 11-dose single-agent curve fit; details: Homo sapiens, HuP-T4, 72 h, read-out: EC50 [nM]
Method: as §1

[14] = tested on: FAMPAC; design: ATPlite luminescence viability of PDAC cell lines, 11-dose single-agent curves, 4-parameter fit; details: 72 h, read-out: EC50 [nM]
Method: as §1

[15] = tested on: MiaPaCa-2; design: ATPlite luminescence viability of PDAC cell lines, 11-dose single-agent curves, 4-parameter fit; details: Homo sapiens, MIA PaCa-2, 72 h, read-out: EC50 [nM]
Method: as §1

[16] = tested on: PSN-1; design: ATPlite luminescence viability of PDAC cell lines, 11-dose single-agent curves, 4-parameter fit; details: Homo sapiens, PSN1, 72 h, read-out: EC50 [nM]
Method: as §1

[17] = tested on: BxPC-3; design: ATPlite luminescence viability of PDAC cell lines, 11-dose single-agent curves, 4-parameter fit; details: Homo sapiens, BXPC-3, 72 h, read-out: EC50 [nM]
Method: as §1

[18] = tested on: Suit2-07; design: ATPlite luminescence viability of PDAC cell lines, 11-dose single-agent curves, 4-parameter fit; details: 72 h, read-out: EC50 [nM]
Method: as §1

[19] = tested on: Dan-G; design: ATPlite luminescence viability of PDAC cell lines, 11-dose single-agent curves, 4-parameter fit; details: 72 h, read-out: EC50 [nM]
Method: as §1

Row | SMILES | EC50 [1] [nM] | EC50 [2] [nM] | EC50 [3] [nM] | EC50 [4] [nM] | EC50 [5] [nM] | EC50 [6] [nM] | EC50 [7] [nM] | EC50 [8] [nM] | EC50 [9] [nM] | EC50 [10] [nM] | EC50 [11] [nM] | EC50 [12] [nM] | EC50 [13] [nM] | EC50 [14] [nM] | EC50 [15] [nM] | EC50 [16] [nM] | EC50 [17] [nM] | EC50 [18] [nM] | EC50 [19] [nM]
1 | C=CC(=O)N1CCC(CNc2ncnc(N)c2-c2ccc(Oc3ccccc3)cc2)CC1 [Evobrutinib] | 1070 | 2910 | > 10000 | 31.5 | 493 | 2.61 | 4490 | > 10000 | 571 | 213 | 1.96 |  |  |  |  |  |  |  | 
2 | [2H]C([2H])([2H])NC(=O)c1nnc(NC(=O)C2CC2)cc1Nc1cccc(-c2ncn(C)n2)c1OC [BMS986165] | 4870 | > 10000 |  | 9560 | 3350 | 2330 | 7220 | 2070 | 7570 | > 10000 | > 10000 | > 10000 | 4610 |  |  |  |  |  | 
3 | CN1CC[C@@H](NC(=O)Nc2ccc(C#N)cc2)C[C@@H]1c1nc2ccccc2[nH]1 [Glasdegib] | 28.4 | 164 |  | 352 | 176 | 110 | > 10000 | 2580 | 846 | 0.5 | 523 | 1230 | 208 |  |  |  |  |  | 
4 | CCc1cc2c(cc1N1CCC(N3CCOCC3)CC1)C(C)(C)c1[nH]c3cc(C#N)ccc3c1C2=O [Alectinib] |  | 99.3 |  | 220 | > 10000 | 2130 | 71.8 | 80.3 | 0.05 | 28 | 2390 | 9090 | 680 |  |  |  |  |  | 
5 | Cc1cc2c(F)c(Oc3ncnn4cc(OC[C@@H](C)O)c(C)c34)ccc2[nH]1 [Brivanib] | 156 | 3.14 | > 10000 | 8830 | > 10000 | > 10000 | 7100 | > 10000 | > 10000 | 9580 | > 10000 |  | 5470 |  |  |  |  |  | 
6 | O=C(Nc1nc2cccc(-c3ccc(CN4CCS(=O)(=O)CC4)cc3)n2n1)C1CC1 [Filgotinib] | 305 | 9420 | 5940 | 3490 | 6150 | 1990 |  | 43.9 |  | > 10000 | 2150 |  | 172 | 8160 | > 10000 | 7590 |  |  | 
7 | NC(=O)c1cnc2[nH]ccc2c1N[C@@H]1[C@@H]2CC3C[C@H]1C[C@@](O)(C3)C2 [Peficitinib] | > 10000 | > 10000 | > 10000 | 6330 | 3590 | 8470 |  | 282 |  | > 10000 | 2770 | > 10000 | 116 |  | 3920 | 6420 |  |  | 
8 | CNC(=O)c1ccc(Nc2ncc(C(F)(F)F)c(NCc3nccnc3N(C)S(C)(=O)=O)n2)cc1 [Defactinib] | 3350 |  | 3400 | 3820 | 7590 | 3690 |  | 142 |  | 9750 | > 10000 |  | 441 | > 10000 | 4660 | 4590 | > 10000 |  | 
9 | CCN1C(=O)N(c2c(F)c(OC)cc(OC)c2F)Cc2cnc3[nH]c(CN4CCOCC4)cc3c21 [Pemigatinib] | 3480 |  | 2030 | 2990 | 2970 | 3380 |  | 442 | 2710 | 3280 |  |  | 3.44 | 3320 | > 10000 |  | 1370 | 3040 | 
10 | Cc1ccc(F)c(NC(=O)Nc2ccc(-c3cccc4[nH]nc(N)c34)cc2)c1 [Linifanib] | 32.7 | 792 | 47 | 131 | 27.9 | 311 | 1830 | 1420 | > 10000 |  | 864 | 3290 | 1100 |  |  |  |  |  | 
11 | C[C@H](Nc1ncnc2nc[nH]c12)c1cc2cccc(Cl)c2c(=O)n1-c1ccccc1 [Duvelisib] | > 10000 | 2870 | 4650 | 3070 |  | 6900 | 2130 | 1590 | 883 | > 10000 | > 10000 | 4250 | 109 |  |  |  |  |  | 5640
12 | COc1ccc(CN2[C@@H]3C[C@H]2CN(c2ccc(-c4cc(OCC(C)(C)O)cn5ncc(C#N)c45)cn2)C3)cn1 [Selpercatinib] | 4660 | 2980 | > 10000 | 4280 | 6000 | 4930 |  | 3470 | > 10000 | 543 | 1160 | > 10000 | 72.1 |  | 2900 |  |  |  | 
